From patent publication US11529341B2, “Bicyclic compounds as inhibitors of PD1/PD-L1 interaction/activation” (JUBILANT PRODEL LLC, priority 2018, dated 2022)
pIC50: −log10 of the molar value.

Each molecule was assayed against T1, PD-1/PD-L1 interaction (Homo sapiens, UniProt Q9NZQ7) (assay: PD-1/PD-L1 Homogenous Time-Resolved Fluorescence (HTRF) binding assay (CisBio kit)). Conditions: Biochemical PD1/PD-L1 inhibition.
T1 construct: Tag1 (undisclosed kit tag); purchased CisBio 63ADK000CPAPEG
Experimental: PD-L1 Enzyme Assay: Homogenous Time-Resolved Fluorescence (HTRF) Binding Assay
All binding studies were performed using PD-1/PD-L1 Binding Assay Kit from CisBio (Catalog #63ADK000CPAPEG), according to the manufacturer's protocol. The interaction between Tag1-PD-1 and […] was detected by anti-Tag1-Eu^3+ (HTRF donor) and anti-Tag2-XL665 (HTRF acceptor). When the donor and acceptor antibodies were brought to close proximity due to PD-1 and PD-L1 binding, excitation of the donor antibody triggered fluorescent resonance energy transfer (FRET) towards the acceptor antibody, which in turn emitted specifically at 665 nm. This specific signal is positively proportional to PD-1/PD-L1 interaction. The compounds blocking PD-1/PD-L1 interaction will cause a reduction in HTRF signal. The necessary reagents were mixed in the following order: 2 μl compounds (or diluents buffer), 4 μl PD-L1 protein, 4 μl PD-1 protein. After an incubation of 15 minutes, 5 μl of anti-Tag1-Eu^3+ and 5 μl of anti-Tag2-XL665 were added. The plate was sealed and incubated at room temperature for 1 h. The fluorescence emission was read at two different wavelengths (665 nm and 620 nm) on a BMG PheraStar® multi-plate reader. Results were calculated from the 665 nm and 620 nm fluorescence signal and expressed in HTRF ratio=(665 nm/620 nm)×10^4.

T1 sequence (Q9NZQ7 19-238 limits assumed): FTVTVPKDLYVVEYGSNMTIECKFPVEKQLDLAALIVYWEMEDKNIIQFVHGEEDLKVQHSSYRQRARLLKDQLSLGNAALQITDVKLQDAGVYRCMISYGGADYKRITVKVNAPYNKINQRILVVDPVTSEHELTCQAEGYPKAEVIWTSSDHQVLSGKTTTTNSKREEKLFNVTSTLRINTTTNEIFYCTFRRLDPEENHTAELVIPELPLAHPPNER

Compound | pIC50
Cc1c(COc2cc(OCc3cccc(C#N)c3)c(CN3CCCC[C@H]3C(=O)O)c3c2CCC3)cccc1-c1ccccc1 [Compound 8, (S)-1-((5-((3-cyanobenzyl)oxy)-7-((2-methyl-[1,1′-biphenyl]-3-yl)methoxy)-2,3-dihydro-1H-inden-4-yl)methyl)piperidine-2-carboxylic acid] | > 7.00
Cc1c(COc2ccc(CNCC(=O)O)c3c2CCC3)cccc1-c1ccccc1 [Compound 20, ((7-((2-methyl-[1,1′-biphenyl]-3-yl)methoxy)-2,3-dihydro-1H-inden-4-yl)methyl)glycine] | 6.30 to 7.00
Cc1c(COc2cc(OCc3cccc(C#N)c3)c(CNCC(=O)O)c3c2CCC3)cccc1-c1ccccc1 [Compound 41, ((5-((3-cyanobenzyl)oxy)-7-((2-methyl-[1,1′-biphenyl]-3-yl)methoxy)-2,3-dihydro-1H-inden-4-yl)methyl)glycine] | > 7.00
Cc1cc(CN2C[C@H](O)C[C@H]2C(=O)O)c2c(c1OCc1cccc(-c3ccccc3)c1C)CCC2 [Compound 29, (2S,4R)-4-hydroxy-1-((6-methyl-7-((2-methyl-[1,1′-biphenyl]-3-yl)methoxy)-2,3-dihydro-1H-inden-4-yl)methyl)pyrrolidine-2-carboxylic acid] | 6.30 to 7.00
Cc1c(COc2cc(OCc3cccc(C#N)c3)c(CN3CCCC(O)C3)c3c2CCC3)cccc1-c1ccccc1 (stereo not drawn) [Compound 40, 3-(((4-((3-hydroxypiperidin-1-yl)methyl)-7-((2-methyl-[1,1′-biphenyl]-3-yl)methoxy)-2,3-dihydro-1H-inden-5-yl)oxy)methyl)benzonitrile] | > 7.00
Cc1c(COc2cc(OCc3cncc(C#N)c3)c(CNC(CO)(CO)CO)c3c2CCC3)cccc1-c1ccccc1 [Compound 49, 5-(((4-(((1,3-dihydroxy-2-(hydroxymethyl)propan-2-yl)amino)methyl)-7-((2-methyl-[1,1′-biphenyl]-3-yl)methoxy)-2,3-dihydro-1H-inden-5-yl)oxy)methyl)nicotinonitrile] | > 7.00
COc1nc(OCc2cccc(-c3ccccc3)c2C)c2c(c1CNCCNC(C)=O)CCC2 [Compound 97, N-(2-(((3-methoxy-1-((2-methyl-[1,1′-biphenyl]-3-yl)methoxy)-6,7-dihydro-5H-cyclopenta[c]pyridin-4-yl)methyl)amino)ethyl)acetamide] | > 7.00
Cc1c(COc2cc(OCc3cncc(C#N)c3)c(CN3CCCC[C@H]3C(=O)O)c3c2CCC3)cccc1-c1ccccc1 [Compound 46, (S)-1-((5-((5-cyanopyridin-3-yl)methoxy)-7-((2-methyl-[1,1′-biphenyl]-3-yl)methoxy)-2,3-dihydro-1H-inden-4-yl)methyl)piperidine-2-carboxylic acid] | > 7.00
CC(=O)NCCNCc1c(OCCCCC(N)=O)cc(OCc2cccc(-c3ccccc3)c2C)c2c1CCC2 [Compound 66, 5-((4-(((2-acetamidoethyl)amino)methyl)-7-((2-methyl-[1,1′-biphenyl]-3-yl)methoxy)-2,3-dihydro-1H-inden-5-yl)oxy)pentanamide] | 6.30 to 7.00
CC(=O)NCCNCc1cc(Cl)c(OCc2cccc(-c3ccccc3)c2C)c2c1CCC2 [Compound 30, N-(2-(((6-chloro-7-((2-methyl-[1,1′-biphenyl]-3-yl)methoxy)-2,3-dihydro-1H-inden-4-yl)methyl)amino)ethyl)acetamide] | 6.30 to 7.00
Cc1c(COc2ccc(CN3CCCC[C@H]3C(=O)O)c3c2CCC3)cccc1-c1ccccc1 [Compound 1, (S)-1-((7-((2-methyl-[1,1′-biphenyl]-3-yl)methoxy)-2,3-dihydro-1H-inden-4-yl)methyl) piperidine-2-carboxylic acid] | 6.30 to 7.00
CC(=O)NCCNCc1c(OCc2cccc(C#N)c2)cc(OCc2cccc(-c3ccc(F)cc3)c2C)c2c1CCC2 [Compound 87, N-(2-(((5-((3-cyanobenzyl)oxy)-7-((4′-fluoro-2-methyl-[1,1′-biphenyl]-3-yl)methoxy)-2,3-dihydro-1H-inden-4-yl)methyl)amino)ethyl)acetamide] | 6.30 to 7.00
Cc1c(COc2cc(OCc3cccc(C#N)c3)c(CNC34CCC(C(=O)O)(CC3)CC4)c3c2CCC3)cccc1-c1ccccc1 [Compound 74, 4-(((5-((3-cyanobenzyl)oxy)-7-((2-methyl-[1,1′-biphenyl]-3-yl)methoxy)-2,3-dihydro-1H-inden-4-yl)methyl)amino)bicyclo[2.2.2]octane-1-carboxylic acid] | > 7.00
COc1cc(OCc2cccc(-c3ccccc3)c2C#N)c2c(c1CN(C)CCN(C)C(C)=O)CCC2 [Compound 64, N-(2-(((7-((2-cyano-[1,1′-biphenyl]-3-yl)methoxy)-5-methoxy-2,3-dihydro-1H-inden-4-yl)methyl)(methyl)amino)ethyl)-N-methylacetamide] | 6.30 to 7.00
Cc1c(COc2cc(OCc3cccc(C#N)c3)c(CN3CCC[C@@H]4C[C@@]43C(=O)O)c3c2CCC3)cccc1-c1ccccc1 (racemic) [Compound 43, rac-(1R,6S)-2-((5-((3-cyanobenzyl)oxy)-7-((2-methyl-[1,1′-biphenyl]-3-yl)methoxy)-2,3-dihydro-1H-inden-4-yl)methyl)-2-azabicyclo[4.1.0]heptane-1-carboxylic acid] | > 7.00
Cc1c(COc2cc(OCCCCC#N)c(CN3C[C@H](O)C[C@H]3C(=O)O)c3c2CCC3)cccc1-c1ccccc1 [Compound 81, (2S,4R)-1-((5-(4-cyanobutoxy)-7-((2-methyl-[1,1′-biphenyl]-3-yl)methoxy)-2,3-dihydro-1H-inden-4-yl)methyl)-4-hydroxypyrrolidine-2-carboxylic acid] | > 7.00
COc1cc(OCc2cccc(-c3ccccc3)c2C)c2c(c1CN1CCC[C@H]3C[C@]31C(=O)O)CCC2 (racemic) [Compound 45, (1R,6S)-2-((5-methoxy-7-((2-methyl-[1,1′-biphenyl]-3-yl)methoxy)-2,3-dihydro-1H-inden-4-yl)methyl)-2-azabicyclo[4.1.0]heptane-1-carboxylic acid] | 6.30 to 7.00
CC(=O)NCCNCc1c(OCCCCC#N)cc(OCc2cccc(-c3ccccc3)c2C)c2c1CCC2 [Compound 79, N-(2-(((5-(4-cyanobutoxy)-7-((2-methyl-[1,1′-biphenyl]-3-yl)methoxy)-2,3-dihydro-1H-inden-4-yl)methyl)amino)ethyl)acetamide] | > 7.00
CC(=O)NCCNCc1c(OCc2cncc(C#N)c2)cc(OCc2cccc(-c3ccccc3)c2C)c2c1CCC2 [Compound 48, N-(2-(((5-((5-cyanopyridin-3-yl)methoxy)-7-((2-methyl-[1,1′-biphenyl]-3-yl)methoxy)-2,3-dihydro-1H-inden-4-yl)methyl)amino)ethyl)acetamide] | > 7.00
COc1cc(OCc2cccc(-c3ccccc3)c2C)c2c(c1CNCCNC(C)=O)CCC2 [Compound 2, N-(2-(((5-methoxy-7-((2-methyl-[1,1′-biphenyl]-3-yl)methoxy)-2,3-dihydro-1H-inden-4-yl)methyl)amino)ethyl)acetamide] | 6.30 to 7.00
CC(=O)NCc1c(OCc2cccc(C#N)c2)cc(OCc2cccc(-c3ccccc3)c2C)c2c1CCC2 [Compound 90, N-((5-((3-cyanobenzyl)oxy)-7-((2-methyl-[1,1′-biphenyl]-3-yl)methoxy)-2,3-dihydro-1H-inden-4-yl)methyl)acetamide] | < 6.30
CC(=O)NCCNCc1cc(C)c(OCc2cccc(-c3ccccc3)c2C)c2c1CCC2 [Compound 28, N-(2-(((6-methyl-7-((2-methyl-[1,1′-biphenyl]-3-yl)methoxy)-2,3-dihydro-1H-inden-4-yl)methyl)amino)ethyl)acetamide] | < 6.30
COc1cc(OCc2cccc(-c3ccccc3)c2C(F)(F)F)c2c(c1CN1C[C@H](O)C[C@H]1C(=O)O)CCC2 [Compound 76, (2S,4R)-4-hydroxy-1-((5-methoxy-7-((2-(trifluoromethyl)-[1,1′-biphenyl]-3-yl)methoxy)-2,3-dihydro-1H-inden-4-yl)methyl)pyrrolidine-2-carboxylic acid] | < 6.30
Cc1c(COc2c(Cl)cc(CN3CCCC[C@H]3C(=O)O)c3c2CCC3)cccc1-c1ccccc1 [Compound 5, (S)-1-((6-chloro-7-((2-methyl-[1,1′-biphenyl]-3-yl)methoxy)-2,3-dihydro-1H-inden-4-yl)methyl)piperidine-2-carboxylic acid] | 6.30 to 7.00
CC(=O)NCCNCc1c(OCc2cncc(C(=O)O)c2)cc(OCc2cccc(-c3ccccc3)c2C)c2c1CCC2 [Compound 93, 5-(((4-(((2-acetamidoethyl)amino)methyl)-7-((2-methyl-[1,1′-biphenyl]-3-yl)methoxy)-2,3-dihydro-1H-inden-5-yl)oxy)methyl)nicotinic acid] | > 7.00
CC(=O)NCCNCc1c(OC(C)c2cccc(C#N)c2)cc(OCc2cccc(-c3ccccc3)c2C)c2c1CCC2 (stereo not drawn) [Compound 14, N-(2-(((5-(1-(3-cyanophenyl)ethoxy)-7-((2-methyl-[1,1′-biphenyl]-3-yl)methoxy)-2,3-dihydro-1H-inden-4-yl)methyl)amino)ethyl)acetamide] | < 6.30
Cc1c(COc2ccc(CN3CC4(COC4)C3)c3c2CCC3)cccc1-c1ccccc1 [Compound 17, 6-((7-((2-methyl-[1,1′-biphenyl]-3-yl)methoxy)-2,3-dihydro-1H-inden-4-yl)methyl)-2-oxa-6-azaspiro[3.3]heptane] | < 6.30
